# Measurements reported in patent publication US20230126893A1, “[(1,4,5-TRISUBSTITUTED-1H-PYRAZOL-3-YL)SULFANYL]ACETIC ACID DERIVATIVES, SALTS THEREOF, AND USE THEREOF AS ACTIVE HERBICIDAL INGREDIENTS” (BAYER AKTIENGESELLSCHAFT, priority 2020, published 2023).
# System: Alopecurus myosuroides
# Assay: Pre-emergence herbicidal effect against ALOMY
# Assay type: in vivo
# Settings: 1280 g/ha, visual score after 3 weeks, 100% = plants have died, 0% = like control plants
# Summary of the method: (§1)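 Visual rating against untreated controls after 3 weeks in greenhouse, from 0% (no difference) to 100% (dead plants). Compound, as WP or EC with 0.2% wetting agent in 600 to 800 L/ha water, applied to covering soil over seeds sown in sandy loam.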
row,SMILES,Pre-emergence action against ALOMY [%]
1,CCOC(=O)CSc1nn(-c2ccc(F)cc2F)c(-c2ccc(F)cc2)c1Br [Example I-016],90
2,O=C(O)CSc1nn(-c2ccccc2F)c(-c2cncc(Cl)c2)c1Br [II-008],100

# System: Tripleurospermum inodorum
# Assay: Post-emergence herbicidal effect against MATIN
# Assay type: in vivo
# Settings: 1280 g/ha, visual assessment about 3 weeks after treatment, 100% = plants have died, 0% = like control plants
# Summary of the method: (§2)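 Activity scored visually as percent damage relative to untreated plants (100% = dead) roughly 3 weeks post-spray. Plants at the one-leaf stage, 2–3 weeks old in sandy loam under greenhouse conditions, received WP/EC formulations in 600–800 l/ha water plus 0.2% wetting agent.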
row,SMILES,Post-emergence action against MATIN [%]
1,CCOC(=O)CSc1nn(-c2ccc(F)cc2F)c(-c2ccc(F)cc2)c1Br [Example I-016],90
2,O=C(O)CSc1nn(-c2ccccc2F)c(-c2cncc(Cl)c2)c1Br [II-008],100

# System: Echinochloa crus-galli
# Assay: Post-emergence herbicidal effect against ECHCG
# Assay type: in vivo
# Settings: 1280 g/ha, visual score after about 3 weeks, 100% = plants have died, 0% = like control plants
# Summary of the method: as §2
row,SMILES,Post-emergence action against ECHCG [%]
1,CCOC(=O)CSc1nn(-c2ccc(F)cc2F)c(-c2ccc(F)cc2)c1Br [Example I-016],90
2,O=C(O)CSc1nn(-c2ccccc2F)c(-c2cncc(Cl)c2)c1Br [II-008],100

# System: Stellaria media
# Assay: Pre-emergence herbicidal effect against STEME
# Assay type: in vivo
# Settings: 1280 g/ha, visual score after 3 weeks, 100% = plants have died, 0% = like control plants
# Summary of the method: as §1
row,SMILES,Pre-emergence action against STEME [%]
1,CCOC(=O)CSc1nn(-c2ccc(F)cc2F)c(-c2ccc(F)cc2)c1Br [Example I-016],100
2,O=C(O)CSc1nn(-c2ccccc2F)c(-c2cncc(Cl)c2)c1Br [II-008],100

# System: Tripleurospermum inodorum
# Assay: Pre-emergence herbicidal effect against MATIN
# Assay type: in vivo
# Settings: 1280 g/ha, visual score after 3 weeks, 100% = plants have died, 0% = like control plants
# Summary of the method: as §1
row,SMILES,Pre-emergence action against MATIN [%]
1,CCOC(=O)CSc1nn(-c2ccc(F)cc2F)c(-c2ccc(F)cc2)c1Br [Example I-016],100
2,O=C(O)CSc1nn(-c2ccccc2F)c(-c2cncc(Cl)c2)c1Br [II-008],100

# System: Lolium rigidum
# Assay: Pre-emergence herbicidal effect against LOLRI
# Assay type: in vivo
# Settings: 1280 g/ha, visual score after 3 weeks, 100% = plants have died, 0% = like control plants
# Summary of the method: as §1
row,SMILES,Pre-emergence action against LOLRI [%]
1,CCOC(=O)CSc1nn(-c2ccc(F)cc2F)c(-c2ccc(F)cc2)c1Br [Example I-016],90
2,O=C(O)CSc1nn(-c2ccccc2F)c(-c2cncc(Cl)c2)c1Br [II-008],100

# System: Stellaria media
# Assay: Post-emergence herbicidal effect against STEME
# Assay type: in vivo
# Settings: 1280 g/ha, visual assessment about 3 weeks after treatment, 100% = plants have died, 0% = like control plants
# Summary of the method: as §2
row,SMILES,Post-emergence action against STEME [%]
1,CCOC(=O)CSc1nn(-c2ccc(F)cc2F)c(-c2ccc(F)cc2)c1Br [Example I-016],90
2,O=C(O)CSc1nn(-c2ccccc2F)c(-c2cncc(Cl)c2)c1Br [II-008],100

# System: Poa annua
# Assay: Post-emergence herbicidal effect against POAAN
# Assay type: in vivo
# Settings: 1280 g/ha, visual assessment about 3 weeks after treatment, 100% = plants have died, 0% = like control plants
# Summary of the method: as §2
row,SMILES,Post-emergence action against POAAN [%]
1,CCOC(=O)CSc1nn(-c2ccc(F)cc2F)c(-c2ccc(F)cc2)c1Br [Example I-016],90
2,O=C(O)CSc1nn(-c2ccccc2F)c(-c2cncc(Cl)c2)c1Br [II-008],100

# System: Digitaria sanguinalis
# Assay: Post-emergence herbicidal effect against DIGSA
# Assay type: in vivo
# Settings: 1280 g/ha, visual score after about 3 weeks, 100% = plants have died, 0% = like control plants
# Procedure: (§3) [table] 2. Post-emergence herbicidal effect and crop plant compatibility Seeds of monocotyledonous and dicotyledonous weed and crop plants are laid out in sandy loam soil in wood-fibre pots, covered with soil and cultivated in a greenhouse under good growth conditions. 2 to 3 weeks after sowing, the test plants are treated at the one-leaf stage. The compounds of the invention, formulated in the form of wettable powders (WP) or as emulsion concentrates (EC), are then sprayed onto the green parts of the plants as aqueous suspension or emulsion at a water application rate equating to 600 to 800 l/ha with addition of 0.2% wetting agent. After the test plants have been left to stand in the greenhouse under optimal growth conditions for about 3 weeks, the action of the preparations is assessed visually in comparison to untreated controls (herbicidal action in percent (%): 100% activity=the plants have died, 0% activity=like control plants).
row,SMILES,Post-emergence action against DIGSA [%]
1,CCOC(=O)CSc1nn(-c2ccc(F)cc2F)c(-c2ccc(F)cc2)c1Br [Example I-016],90
2,O=C(O)CSc1nn(-c2ccccc2F)c(-c2cncc(Cl)c2)c1Br [II-008],100

# System: Abutylon threophrasti
# Assay: Post-emergence herbicidal effect against ABUTH
# Assay type: in vivo
# Settings: 1280 g/ha, visual assessment about 3 weeks after treatment, 100% = plants have died, 0% = like control plants
# Summary of the method: as §2
row,SMILES,Post-emergence action against ABUTH [%]
1,O=C(O)CSc1nn(-c2ccccc2F)c(-c2cncc(Cl)c2)c1Br [II-008],90

# System: Amaranthus retroflexus
# Assay: Post-emergence herbicidal effect against AMARE
# Assay type: in vivo
# Settings: 1280 g/ha, visual assessment about 3 weeks after treatment, 100% = plants have died, 0% = like control plants
# Procedure: as §3
row,SMILES,Post-emergence action against AMARE [%]
1,O=C(O)CSc1nn(-c2ccccc2F)c(-c2cncc(Cl)c2)c1Br [II-008],90

# System: Veronica persica
# Assay: Post-emergence herbicidal effect against VERPE
# Assay type: in vivo
# Settings: 1280 g/ha, visual assessment about 3 weeks after treatment, 100% = plants have died, 0% = like control plants
# Summary of the method: as §2
row,SMILES,Post-emergence action against VERPE [%]
1,CCOC(=O)CSc1nn(-c2ccc(F)cc2F)c(-c2ccc(F)cc2)c1Br [Example I-016],90
2,O=C(O)CSc1nn(-c2ccccc2F)c(-c2cncc(Cl)c2)c1Br [II-008],100

# System: Bassia scoparia
# Assay: Post-emergence herbicidal effect against KCHSC
# Assay type: in vivo
# Settings: 1280 g/ha, visual assessment about 3 weeks after treatment, 100% = plants have died, 0% = like control plants
# Summary of the method: as §2
row,SMILES,Post-emergence action against KCHSC [%]
1,CCOC(=O)CSc1nn(-c2ccc(F)cc2F)c(-c2ccc(F)cc2)c1Br [Example I-016],90

# System: Alopecurus myosuroides
# Assay: Post-emergence herbicidal effect against ALOMY
# Assay type: in vivo
# Settings: 1280 g/ha, visual score after about 3 weeks, 100% = plants have died, 0% = like control plants
# Summary of the method: as §2
row,SMILES,Post-emergence action against ALOMY [%]
1,CCOC(=O)CSc1nn(-c2ccc(F)cc2F)c(-c2ccc(F)cc2)c1Br [Example I-016],100
2,O=C(O)CSc1nn(-c2ccccc2F)c(-c2cncc(Cl)c2)c1Br [II-008],100

# System: Echinochloa crus-galli
# Assay: Pre-emergence herbicidal effect against ECHCG
# Assay type: in vivo
# Settings: 1280 g/ha, visual score after 3 weeks, 100% = plants have died, 0% = like control plants
# Summary of the method: as §1
row,SMILES,Pre-emergence action against ECHCG [%]
1,CCOC(=O)CSc1nn(-c2ccc(F)cc2F)c(-c2ccc(F)cc2)c1Br [Example I-016],100
2,O=C(O)CSc1nn(-c2ccccc2F)c(-c2cncc(Cl)c2)c1Br [II-008],100

# System: Bassia scoparia
# Assay: Pre-emergence herbicidal effect against KCHSC
# Assay type: in vivo
# Settings: 1280 g/ha, visual score after 3 weeks, 100% = plants have died, 0% = like control plants
# Description: (§4) 1. Pre-emergence herbicidal effect and crop plant compatibility Seeds of monocotyledonous and dicotyledonous weed plants and crop plants are laid out in sandy loam soil in wood-fibre pots and covered with soil. The compounds of the invention, formulated in the form of wettable powders (WP) or as emulsion concentrates (EC), are then applied to the surface of the covering soil as aqueous suspension or emulsion at a water application rate equating to 600 to 800 L/ha with addition of 0.2% wetting agent. After the treatment, the pots are placed in a greenhouse and kept under good growth conditions for the trial plants. The damage to the test plants is scored visually after a test period of 3 weeks by comparison with untreated controls (herbicidal activity in percent (%): 100% activity=the plants have died, 0% activity=like control plants). [table]
row,SMILES,Pre-emergence action against KCHSC [%]
1,CCOC(=O)CSc1nn(-c2ccc(F)cc2F)c(-c2ccc(F)cc2)c1Br [Example I-016],100

# System: Amaranthus retroflexus
# Assay: Pre-emergence herbicidal effect against AMARE
# Assay type: in vivo
# Settings: 1280 g/ha, visual score after 3 weeks, 100% = plants have died, 0% = like control plants
# Description: as §4
row,SMILES,Pre-emergence action against AMARE [%]
1,O=C(O)CSc1nn(-c2ccccc2F)c(-c2cncc(Cl)c2)c1Br [II-008],100

# System: Setaria viridis
# Assay: Pre-emergence herbicidal effect against SETVI
# Assay type: in vivo
# Settings: 1280 g/ha, visual score after 3 weeks, 100% = plants have died, 0% = like control plants
# Summary of the method: as §1
row,SMILES,Pre-emergence action against SETVI [%]
1,CCOC(=O)CSc1nn(-c2ccc(F)cc2F)c(-c2ccc(F)cc2)c1Br [Example I-016],100
2,O=C(O)CSc1nn(-c2ccccc2F)c(-c2cncc(Cl)c2)c1Br [II-008],100

# System: Poa annua
# Assay: Pre-emergence herbicidal effect against POAAN
# Assay type: in vivo
# Settings: 1280 g/ha, visual score after 3 weeks, 100% = plants have died, 0% = like control plants
# Summary of the method: as §1
row,SMILES,Pre-emergence action against POAAN [%]
1,CCOC(=O)CSc1nn(-c2ccc(F)cc2F)c(-c2ccc(F)cc2)c1Br [Example I-016],100
2,O=C(O)CSc1nn(-c2ccccc2F)c(-c2cncc(Cl)c2)c1Br [II-008],100

# System: Veronica persica
# Assay: Pre-emergence herbicidal effect against VERPE
# Assay type: in vivo
# Settings: 1280 g/ha, visual score after 3 weeks, 100% = plants have died, 0% = like control plants
# Summary of the method: as §1
row,SMILES,Pre-emergence action against VERPE [%]
1,CCOC(=O)CSc1nn(-c2ccc(F)cc2F)c(-c2ccc(F)cc2)c1Br [Example I-016],100
2,O=C(O)CSc1nn(-c2ccccc2F)c(-c2cncc(Cl)c2)c1Br [II-008],100

# System: Digitaria sanguinalis
# Assay: Pre-emergence herbicidal effect against DIGSA
# Assay type: in vivo
# Settings: 1280 g/ha, visual score after 3 weeks, 100% = plants have died, 0% = like control plants
# Summary of the method: as §1
row,SMILES,Pre-emergence action against DIGSA [%]
1,CCOC(=O)CSc1nn(-c2ccc(F)cc2F)c(-c2ccc(F)cc2)c1Br [Example I-016],100
2,O=C(O)CSc1nn(-c2ccccc2F)c(-c2cncc(Cl)c2)c1Br [II-008],100

# System: Setaria viridis
# Assay: Post-emergence herbicidal effect against SETVI
# Assay type: in vivo
# Settings: 1280 g/ha, visual assessment about 3 weeks after treatment, 100% = plants have died, 0% = like control plants
# Summary of the method: as §2
row,SMILES,Post-emergence action against SETVI [%]
1,O=C(O)CSc1nn(-c2ccccc2F)c(-c2cncc(Cl)c2)c1Br [II-008],90
